Measurements from patent US5840684A, “Glycopeptide antibiotic derivatives” (Eli Lilly and Company, priority 1995, dated 1998).
Converted amounts (≈) assume the structure as drawn.

Tests used:
[1] = system: vancomycin-resistant enterococci; test: broth micro-dilution, mean geometric MIC; format: cell-based, Enterococcus faecium and Enterococcus faecalis; conditions: enterococci, 24-hour incubation
[2] = system: Staphylococcus aureus SA1199A; test: broth micro-dilution MIC; format: cell-based
Experimental: (§1) The MIC's were determined using a standard broth micro-dilution assay.

[3] = system: Staphylococcus aureus 491; test: broth micro-dilution MIC; format: cell-based
Experimental: as §1

Entercoccus faecium 276 = test: broth micro-dilution MIC; format: cell-based
Experimental: as §1

[4] = system: Entercoccus faecium 180-1; test: broth micro-dilution MIC; format: cell-based
Experimental: as §1

[5] = system: Staphylococcus aureus X400; test: broth micro-dilution MIC; format: cell-based
Experimental: as §1

[6] = system: Staphylococcus aureus 446; test: broth micro-dilution MIC; format: cell-based
Experimental: as §1

[7] = system: Staphylococcus aureus 447; test: broth micro-dilution MIC; format: cell-based
Experimental: as §1

[8] = system: Staphylococcus aureus SA1199; test: broth micro-dilution MIC; format: cell-based
Experimental: as §1

[9] = system: Staphylococcus aureus X778; test: broth micro-dilution MIC; format: cell-based
Experimental: as §1

[10] = system: Streptococcus pyogenes C203; test: broth micro-dilution MIC; format: cell-based
Experimental: as §1

[11] = system: Staphylococcus aureus 489; test: broth micro-dilution MIC; format: cell-based
Experimental: as §1

[12] = system: vancomycin-susceptible enterococci; test: broth micro-dilution, mean geometric MIC; format: cell-based, Enterococcus faecium and Enterococcus faecalis; conditions: enterococci, 24-hour incubation
[13] = system: Staphylococcus aureus S13E; format: cell-based
Experimental: as §1

[14] = system: Staphylococcus aureus SA1199B; format: cell-based
Experimental: as §1

[15] = system: Haemophilus influenzae RD; test: broth micro-dilution MIC; format: cell-based; conditions: Haemophilus influenzae RD
Experimental: (§2) The formula I compounds have in vitro and in vivo activity against Gram-positive pathogenic bacteria. The MIC's were determined using a standard broth micro-dilution assay.

[16] = system: Staphylococcus haemolyticus 415; test: broth micro-dilution MIC; format: cell-based
Experimental: as §2

[17] = system: Streptococcus pneumoniae P1; test: broth micro-dilution MIC; format: cell-based
Experimental: as §2

Entercoccus faecium 180 = test: broth micro-dilution MIC; format: cell-based; conditions: Entercoccus faecium 180
Experimental: as §2

Entercoccus faecium 2041 = test: broth micro-dilution MIC; format: cell-based; conditions: Entercoccus faecium 2041
Experimental: as §2

[18] = system: Enterococcus gallinarum 245; test: broth micro-dilution MIC; format: cell-based; conditions: Enterococcus gallinarum 245
Experimental: as §2

[19] = system: Staphylococcus epidermidis 270; test: broth micro-dilution MIC; format: cell-based
Experimental: as §2

Escherichia coli EC14 = test: broth micro-dilution MIC; format: cell-based
Experimental: as §2

[20] = system: Staphylococcus haemolyticus 105; test: broth micro-dilution MIC; format: cell-based
Experimental: as §2

| SMILES | mean geometric MIC, Vancomycin Resistant Strains [1] [µg/mL] | MIC [2] [µg/mL] | MIC [3] [µg/mL] | MIC (Entercoccus faecium 276) [µg/mL] | MIC [4] [µg/mL] | MIC [5] [µg/mL] | MIC [6] [µg/mL] | MIC [7] [µg/mL] | MIC [8] [µg/mL] | MIC [9] [µg/mL] | MIC [10] [µg/mL] | MIC [11] [µg/mL] | mean geometric MIC, Vancomycin Sensitive Strains [12] [µg/mL] | MIC [13] [µg/mL] | MIC [14] [µg/mL] | MIC [15] [µg/mL] | MIC [16] [µg/mL] | MIC [17] [µg/mL] | MIC (Entercoccus faecium 180) [µg/mL] | MIC (Entercoccus faecium 2041) [µg/mL] | other results |
| --- | --- | --- | --- | --- | --- | --- | --- | --- | --- | --- | --- | --- | --- | --- | --- | --- | --- | --- | --- | --- | --- |
| COc1ccc2ccccc2c1CNC1(C)CC(OC2C(Oc3c4cc5cc3Oc3ccc(cc3Cl)C(OC3CC(C)(N)C(O)C(C)O3)C3NC(=O)C(NC(=O)C5NC(=O)C(CC(N)=O)NC(=O)C(NC(=O)C(CC(C)C)N(C)Cc5c(OC)ccc6ccccc56)C(O)c5ccc(c(Cl)c5)O4)c4ccc(O)c(c4)-c4c(O)cc(O)cc4C(C(=O)O)NC3=O)OC(CO)C(O)C2O)OC(C)C1O (stereo not drawn) [Compound 282] | 45 | 1 (≈ 0.517 µM) | 16 (≈ 8.28 µM) | 4 (≈ 2.07 µM) | 1 (≈ 0.517 µM) | 16 (≈ 8.28 µM) | 32 (≈ 16.6 µM) | > 64 | 16 (≈ 8.28 µM) | 16 (≈ 8.28 µM) | ≤ 0.06 | 8 (≈ 4.14 µM) | 2.6 | 16 (≈ 8.28 µM) | 16 (≈ 8.28 µM) | > 64 | > 64 | ≤ 0.06 | 32 (≈ 16.6 µM) | 4 (≈ 2.07 µM) | MIC [18]: > 64 µg/mL; MIC [19]: > 64 µg/mL; MIC (Escherichia coli EC14): > 64 µg/mL; MIC [20]: > 64 µg/mL |
| CNC(CC(C)C)C(=O)NC1C(=O)NC(CC(N)=O)C(=O)NC2C(=O)NC3C(=O)NC(C(=O)NC(C(=O)O)c4cc(O)cc(O)c4-c4cc3ccc4O)C(OC3CC(C)(NCc4c5ccccc5c(C)c5ccccc45)C(O)C(C)O3)c3ccc(c(Cl)c3)Oc3cc2cc(c3OC2OC(CO)C(O)C(O)C2OC2CC(C)(NCc3c4ccccc4c(C)c4ccccc34)C(O)C(C)O2)Oc2ccc(cc2Cl)C1O (stereo not drawn) [Compound 283] | 32 | 4 (≈ 2 µM) | 4 (≈ 2 µM) | 16 (≈ 8 µM) | 0.125 (≈ 0.0625 µM) | 16 (≈ 8 µM) | 16 (≈ 8 µM) | 32 (≈ 16 µM) | 32 (≈ 16 µM) | 8 (≈ 4 µM) | ≤ 0.06 | 8 (≈ 4 µM) | 1.7 | 4 (≈ 2 µM) | 32 (≈ 16 µM) | > 64 | 32 (≈ 16 µM) | ≤ 0.06 | 4 (≈ 2 µM) | 2 (≈ 0.999 µM) | MIC [18]: 32 µg/mL (≈ 16 µM); MIC [19]: 16 µg/mL (≈ 8 µM); MIC (Escherichia coli EC14): > 64 µg/mL; MIC [20]: > 64 µg/mL |
| CC(C)CC(C(=O)NC1C(=O)NC(CC(N)=O)C(=O)NC2C(=O)NC3C(=O)NC(C(=O)NC(C(=O)O)c4cc(O)cc(O)c4-c4cc3ccc4O)C(OC3CC(C)(N)C(O)C(C)O3)c3ccc(c(Cl)c3)Oc3cc2cc(c3OC2OC(CO)C(O)C(O)C2OC2CC(C)(NCc3c4ccccc4cc4ccccc34)C(O)C(C)O2)Oc2ccc(cc2Cl)C1O)N(C)Cc1c2ccccc2cc2ccccc12 (stereo not drawn) [Compound 284] | 38 | 0.25 (≈ 0.127 µM) | 2 (≈ 1.01 µM) | 8 (≈ 4.05 µM) | 0.5 (≈ 0.253 µM) | 4 (≈ 2.03 µM) | 8 (≈ 4.05 µM) | 8 (≈ 4.05 µM) | 8 (≈ 4.05 µM) | 1 (≈ 0.507 µM) | ≤ 0.06 | 2 (≈ 1.01 µM) | 2.3 | 4 (≈ 2.03 µM) | 4 (≈ 2.03 µM) | > 64 | 32 (≈ 16.2 µM) | ≤ 0.06 | 8 (≈ 4.05 µM) | 1 (≈ 0.507 µM) | MIC [18]: 32 µg/mL (≈ 16.2 µM); MIC [19]: 16 µg/mL (≈ 8.11 µM); MIC (Escherichia coli EC14): > 64 µg/mL; MIC [20]: 32 µg/mL (≈ 16.2 µM) |
| CC(C)CC(C(=O)NC1C(=O)NC(CC(N)=O)C(=O)NC2C(=O)NC3C(=O)NC(C(=O)NC(C(=O)O)c4cc(O)cc(O)c4-c4cc3ccc4O)C(OC3CC(C)(N)C(O)C(C)O3)c3ccc(c(Cl)c3)Oc3cc2cc(c3OC2OC(CO)C(O)C(O)C2OC2CC(C)(NCc3ccc4ccccc4n3)C(O)C(C)O2)Oc2ccc(cc2Cl)C1O)N(C)Cc1ccc2ccccc2n1 (stereo not drawn) [Compound 285] | 90 | 0.25 (≈ 0.133 µM) | 4 (≈ 2.13 µM) | 0.5 (≈ 0.267 µM) | 0.25 (≈ 0.133 µM) | 4 (≈ 2.13 µM) | 4 (≈ 2.13 µM) | 32 (≈ 17.1 µM) | 2 (≈ 1.07 µM) | 1 (≈ 0.533 µM) | ≤ 0.06 | 1 (≈ 0.533 µM) | 2.4 | 1 (≈ 0.533 µM) | 1 (≈ 0.533 µM) | > 64 | 16 (≈ 8.53 µM) | ≤ 0.06 | 16 (≈ 8.53 µM) | 0.5 (≈ 0.267 µM) | MIC [18]: 16 µg/mL (≈ 8.53 µM); MIC [19]: 8 µg/mL (≈ 4.27 µM); MIC (Escherichia coli EC14): > 64 µg/mL; MIC [20]: 16 µg/mL (≈ 8.53 µM) |
| CC(C)CC(C(=O)NC1C(=O)NC(CC(N)=O)C(=O)NC2C(=O)NC3C(=O)NC(C(=O)NC(C(=O)O)c4cc(O)cc(O)c4-c4cc3ccc4O)C(OC3CC(C)(NCc4cccc5c([N+](=O)[O-])cccc45)C(O)C(C)O3)c3ccc(c(Cl)c3)Oc3cc2cc(c3OC2OC(CO)C(O)C(O)C2OC2CC(C)(N)C(O)C(C)O2)Oc2ccc(cc2Cl)C1O)N(C)Cc1cccc2c([N+](=O)[O-])cccc12 (stereo not drawn) [Compound 286] | 19 | ≤ 0.06 | 2 (≈ 1.02 µM) | 1 (≈ 0.509 µM) | 0.25 (≈ 0.127 µM) | 2 (≈ 1.02 µM) | 1 (≈ 0.509 µM) | 8 (≈ 4.08 µM) | 2 (≈ 1.02 µM) | 4 (≈ 2.04 µM) | ≤ 0.06 | 2 (≈ 1.02 µM) | 1.1 | 4 (≈ 2.04 µM) | 4 (≈ 2.04 µM) | > 64 | 4 (≈ 2.04 µM) | ≤ 0.06 | 8 (≈ 4.08 µM) | 1 (≈ 0.509 µM) | MIC [18]: 4 µg/mL (≈ 2.04 µM); MIC [19]: 4 µg/mL (≈ 2.04 µM); MIC (Escherichia coli EC14): > 64 µg/mL; MIC [20]: 8 µg/mL (≈ 4.08 µM) |
| CC(C)CC(C(=O)NC1C(=O)NC(CC(N)=O)C(=O)NC2C(=O)NC3C(=O)NC(C(=O)NC(C(=O)O)c4cc(O)cc(O)c4-c4cc3ccc4O)C(OC3CC(C)(N)C(O)C(C)O3)c3ccc(c(Cl)c3)Oc3cc2cc(c3OC2OC(CO)C(O)C(O)C2OC2CC(C)(NCC3CC=CCC3)C(O)C(C)O2)Oc2ccc(cc2Cl)C1O)N(C)CC1CC=CCC1 (stereo not drawn) [Compound 287] | 45 | ≤ 0.06 | 1 (≈ 0.562 µM) | 0.25 (≈ 0.14 µM) | 0.125 (≈ 0.0702 µM) | 0.5 (≈ 0.281 µM) | 1 (≈ 0.562 µM) | 4 (≈ 2.25 µM) | 0.5 (≈ 0.281 µM) | 0.5 (≈ 0.281 µM) | ≤ 0.06 | 0.5 (≈ 0.281 µM) | 1.1 | 1 (≈ 0.562 µM) | 0.25 (≈ 0.14 µM) | > 64 | 16 (≈ 8.98 µM) | ≤ 0.06 | 16 (≈ 8.98 µM) | 0.125 (≈ 0.0702 µM) | MIC [18]: 0.5 µg/mL (≈ 0.281 µM); MIC [19]: 4 µg/mL (≈ 2.25 µM); MIC (Escherichia coli EC14): > 64 µg/mL; MIC [20]: 8 µg/mL (≈ 4.49 µM) |
| CNC(CC(C)C)C(=O)NC1C(=O)NC(CC(N)=O)C(=O)NC2C(=O)NC3C(=O)NC(C(=O)NC(C(=O)O)c4cc(O)cc(O)c4-c4cc3ccc4O)C(OC3CC(C)(NCc4ccc(OCCOC(C)(C)C)cc4)C(O)C(C)O3)c3ccc(c(Cl)c3)Oc3cc2cc(c3OC2OC(CO)C(O)C(O)C2OC2CC(C)(NCc3ccc(OCCOC(C)(C)C)cc3)C(O)C(C)O2)Oc2ccc(cc2Cl)C1O (stereo not drawn) [Compound 288] | 11 | 1 (≈ 0.499 µM) | 2 (≈ 0.997 µM) | 2 (≈ 0.997 µM) | 1 (≈ 0.499 µM) | 2 (≈ 0.997 µM) | 2 (≈ 0.997 µM) | 2 (≈ 0.997 µM) | 2 (≈ 0.997 µM) | 2 (≈ 0.997 µM) | ≤ 0.06 | 2 (≈ 0.997 µM) | 1.7 | 2 (≈ 0.997 µM) | 1 (≈ 0.499 µM) | > 64 | 4 (≈ 1.99 µM) | ≤ 0.06 | 4 (≈ 1.99 µM) | 1 (≈ 0.499 µM) | MIC [18]: 2 µg/mL (≈ 0.997 µM); MIC [19]: 1 µg/mL (≈ 0.499 µM); MIC (Escherichia coli EC14): > 64 µg/mL; MIC [20]: 2 µg/mL (≈ 0.997 µM) |
